Results on eight compounds are retold here after patent publication US8907098B2, “Inhibitors of sphingosine kinase” (MERCK PATENT GmbH, priority 2009, dated 2014).

In the experiment the target is modified SphK1 (Homo sapiens, UniProt Q9NYA1). As to the kind of experiment: SphK1 biochemical kinase assay (384-well flashplate). The conditions noted are these: IC50 ranges; 5 nM modified SphK1, 1 μM ATP, 30° C., 120 min; read-out: SphK1 Inhibition IC50. The protocol: The kinase assay is carried out as a 384-well flashplate assay.
5 nM modified SphK1, 800 nM omega-biotinyl-D-erythro-sphingosine and 1 μM ATP (with 0.3 μCi of ^33P-ATP/well) are incubated in a total volume of 50 μl (25 mM HEPES, 5 mM MgCl2, 1 mM dithiothreitol, 0.01% of Brij35, 0.1% of BSA (fatty acid-free), pH 7.4) without or with test substance (5-10 concentrations) at 30° C. for 120 min. The reaction is terminated using 25 μl of 200 mM EDTA solution, filtered off with suction at room temperature after 30 min, and the cavities are washed 3 times with 100 μl of 0.9% NaCl solution. The non-specific proportion of the kinase reaction (blank) is determined using 0.5 mM NaCl. Radioactivity is measured in topcount. IC50 values are calculated using RS1.

One may read the IC50 as the midpoint of a concentration-inhibition curve.

Bounds are passed on as bounds.

Chain of modified SphK1 (Q9NYA1 whole entry): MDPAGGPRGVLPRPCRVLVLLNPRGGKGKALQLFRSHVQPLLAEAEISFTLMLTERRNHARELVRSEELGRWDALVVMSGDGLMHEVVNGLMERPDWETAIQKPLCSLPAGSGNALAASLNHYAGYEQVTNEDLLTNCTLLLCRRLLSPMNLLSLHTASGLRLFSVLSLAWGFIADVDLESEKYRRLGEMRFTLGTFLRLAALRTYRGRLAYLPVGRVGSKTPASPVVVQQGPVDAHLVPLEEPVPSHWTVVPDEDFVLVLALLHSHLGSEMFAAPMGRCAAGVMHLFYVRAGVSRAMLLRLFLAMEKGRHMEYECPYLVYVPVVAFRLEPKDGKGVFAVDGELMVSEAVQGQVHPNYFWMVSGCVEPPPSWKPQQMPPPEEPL

As to `CC1(C)CCC(C)(C)c2cc(-c3csc(N4CCNCC4)n3)ccc21` [1-[4-(5,5,8,8-Tetramethyl-5,6,7,8-tetrahydronaphthalen-2-yl)thiazol-2-yl]piperazine], the IC50 was 100 to 1000 nM.
For the compound `CC1(C)CCC(C)(C)c2cc(-c3csc(N4CCN(CCCO)CC4)n3)ccc21`, the IC50 is 100 to 1000 nM.
For `CC1(C)CCc2cc(-c3csc(N4CCC(N)CC4)n3)ccc21` [1-[4-(1,1-Dimethylindan-5-yl)thiazol-2-yl]piperidin-4-ylamine] the value was 100 to 1000 nM; for `CC1(C)CCC(C)(C)c2cc(-c3ncc(C4CCNCC4)o3)ccc21` [4-[2-(5,5,8,8-Tetramethyl-5,6,7,8-tetrahydronaphthalen-2-yl)oxazol-5-yl]piperidine], greater than 1000 nM; for `CC1(C)CCC(C)(C)c2cc(-c3csc(N4CCC(N5CCCC(O)C5)CC4)n3)ccc21` (centres unmarked) [1′-[4-(5,5,8,8-Tetramethyl-5,6,7,8-tetrahydronaphthalen-2-yl)thiazol-2-yl]-1,4′-bipiperidinyl-3-ol], 100 to 1000 nM.
The value for `CC1(C)CCC(C)(C)c2cc(-c3csc(N4CCCC(CCO)C4)n3)ccc21` (centres unmarked) was 100 to 1000 nM; that for `CC1(C)CCC(C)(C)c2cc(-c3csc(N4CC[C@@H](N)C4)n3)ccc21` was 100 to 1000 nM; that for `CC1(C)CCC(C)(C)c2cc(-c3csc(C4CCCN(CCO)C4)n3)ccc21` (centres unmarked) was 100 to 1000 nM.
